# Patent US7863408B2, “Body fluid compatible and biocompatible resin” (Asahi Kasei Kabushiki Kaisha, priority 2002, dated 2011)
# Key:
# Colon 26 tumor cells = experiment: Antitumor assay, Colon 26; type: in vivo, mouse; details: Balb/C mice, 50 mg/kg in terms of paclitaxel
# Description: Further, a control solution was prepared by dissolving paclitaxel as such in a mixture of ethanol, Cremophore EL (manufactured and sold by Sigma, U.S.A.) and physiological saline. Thus, two types of solutions, namely, a test sample solution and a control solution were obtained. Six female Balb/C mice (six weeks old) were divided into two groups, each consisting of three mice, and subsequently, a 4% suspension of Colon 26 tumor cells was intradermally transplanted to the flank of each of the mice. […] Each mouse of the other group of the two groups received administration of the control solution, wherein the control solution was administered in the same manner as in the case of the administration of the test sample solution (i.e., the dose of paclitaxel was 50 mg/kg), thereby obtaining a control group of mice. Separately, a group consisting of five female Balb/C mice (six weeks old), which were transplanted with Colon 26 tumor cells in the same manner as mentioned above, was provided. Each of the mice of such group received the administration of only physiological saline in the same manner as in the case of the administration of the test sample solution, to thereby obtain a non-treated group of mice. Each of the above-mentioned administration of the test sample solution, control solution and physiological saline was performed every 4 days, 7 times in total in the above-mentioned manner.
# (§1) Evaluation was made of the antitumor activity in terms of the change (with the lapse of time) of the average tumor volume (%). The tumor volume was determined as follows. The major and minor diameters (a and b, respectively) (each in mm) of the tumor were externally measured, and the tumor volume (V) was obtained according to the following formula.
# Further, a control solution was prepared by dissolving paclitaxel as such in a mixture of ethanol, Cremophore EL (manufactured and sold by Sigma, U.S.A.) and physiological saline. Thus, five types of solutions, namely, four types of test sample solutions and one control solution were obtained. Twenty-five female Balb/C mice (six weeks old) were divided into five groups, each consisting of five mice, and subsequently, a 4% suspension of Colon 26 tumor cells was intradermally transplanted to the flank of each of the mice. After two days from the transplantation, four groups of the five groups of mice respectively received the administration of the four test sample solutions obtained above, wherein the dose of the compound was 50 mg/kg in terms of paclitaxel. Each mouse of the other group of the five groups received administration of the control solution, wherein the control solution was administered in the same manner as in the case of the administration of the test sample solution (i.e., the dose of paclitaxel was 50 mg/kg), thereby obtaining a control group of mice. Separately, a group consisting of nine female Balb/C mice (six weeks old), which were transplanted with Colon 26 tumor cells in the same manner as mentioned above, was provided. Each of the mice of such group received the administration of only physiological saline in the same manner as in the case of the administration of the test sample solution, to thereby obtain a non-treated group of mice. Each of the above-mentioned administration of the test sample solution, control solution and physiological saline was performed every 7 days, 4 times in total in the above mentioned manner.
# as §1, with “volume” for “volume (V)”
# [1] = Solubility in physiological saline; type: physicochemical; details: for dissolution of 10 mg compound in 0.1 ml of physiological saline / dissolution ratio in terms of camptothecin: Example 162; for dissolution ratio in terms of camptothecin: physiological saline, 10 mg compound in 0.1 ml
# Description: 10 mg of each of compounds (203) and (206) was precisely weighed and individually added to 0.1 ml of physiological saline.
# B16 melanoma cells = details: Example 149; C57BL/6 mice; 50 mg/kg in terms of paclitaxel, tail-vein injection; six days after administration
# Description: Further, a control solution was prepared by dissolving paclitaxel as such in a mixture of ethanol, Cremophore EL (manufactured and sold by Sigma, U.S.A.) and physiological saline. Thus, two types of solutions, namely, a test sample solution and a control solution were obtained. Twenty-one female C57BL/6 mice (six weeks old) were divided into three groups, each consisting of seven mice, and subsequently, B16 melanoma cells were intradermally transplanted to the groin of each of the mice (5×10^6 cells per mouse). […] Each mouse of the other one group of the three groups received the administration of the control solution, wherein the control solution was administered in substantially the same manner as in the above-mentioned administration of the test sample solution, except that the dose of paclitaxel was 50 mg/kg, thereby obtaining a control group of mice. Separately, a group consisting of thirteen female C57BL/6 mice (six weeks old), which were transplanted with B16 melanoma cells in the same manner as mentioned above, was provided. Each of the mice of such group received the administration of physiological saline, to thereby obtain a non-treated group of mice.
# [2] = Example 151, every 7 days, 4 times
molecule,measurement,setting,value
carboxymethylated polyether-2′-Ile-paclitaxel [(183)],order of the magnitudes of the antitumor activity,Colon 26 tumor cells; [2],(177)/(179)>(181)>(183)/paclitaxel
carboxymethylated polyether-20-Gly-Gly-Phe-Gly-camptothecin [(206)],dissolution of 10 mg compound in 0.1 ml of physiological saline,[1],completely dissolved
same,dissolution ratio in terms of camptothecin,[1],4.5 mg/mL
"CC(=O)O[C@H]1C(=O)[C@@]2(C)[C@H]([C@H](OC(=O)c3ccccc3)[C@]3(O)C[C@H](OC(=O)[C@H](O)[C@@H](NC(=O)c4ccccc4)c4ccccc4)C(C)=C1C3(C)C)[C@]1(OC(C)=O)CO[C@@H]1C[C@@H]2O [paclitaxel, reference compound]",order of the magnitudes of the antitumor activity,Colon 26 tumor cells; [2],(177)/(179)>(181)>(183)/paclitaxel
same,dissolution of 1 mg in 10 ml of physiological saline,[1]; Example 145,not able to be completely dissolved
carboxymethylated polyether-2′-Leu-paclitaxel [(181)],order of the magnitudes of the antitumor activity,Colon 26 tumor cells; [2],(177)/(179)>(181)>(183)/paclitaxel
carboxymethylated polyether-2′-Gly-Gly-Phe-Gly-paclitaxel [Compound (197)],antitumor activity (average tumor volume with time) compared to paclitaxel as such,"Colon 26 tumor cells; Example 150, every 4 days, 7 times",significantly excellent
same,antitumor activity (relative average tumor volume) compared to paclitaxel as such,B16 melanoma cells,significantly excellent
carboxymethylated polyether-20-Gly-camptothecin [Compound (203)],dissolution of 10 mg compound in 0.1 ml of physiological saline,[1],completely dissolved
same,dissolution ratio in terms of camptothecin,[1],3.5 mg/mL
carboxymethylated polyether-2′-Ala-paclitaxel [(179)],antitumor activity (average tumor volume with time) compared to paclitaxel as such,Colon 26 tumor cells; [2],significantly excellent
same,order of the magnitudes of the antitumor activity,Colon 26 tumor cells; [2],(177)/(179)>(181)>(183)/paclitaxel
carboxymethylated polyether-2′-Gly-paclitaxel [Compound (177)],antitumor activity (average tumor volume with time) compared to paclitaxel as such,Colon 26 tumor cells; [2],significantly excellent
same,order of the magnitudes of the antitumor activity,Colon 26 tumor cells; [2],(177)/(179)>(181)>(183)/paclitaxel
